Experiments:
[1] = molecular target: Cathepsin S (UniProt P25774); experiment: Cathepsin enzyme inhibition assay (fluorogenic peptide substrate Z-Val-Val-Arg-AMC), Cathepsin S; format: biochemical, human and mouse; details: enzyme 1 nM, substrate 20 μM, pH 6.5; read-out: CatS IC50
Summary of the method: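 Human or mouse cathepsin S (1 nM) was run in 100 mM potassium phosphate pH 6.5 with 5 mM EDTA, 0.001% Triton X-100 and 5 mM DTT. The rise in AMC fluorescence from cleavage was measured, and IC50 values were calculated by standard methods and expressed in μM.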

[2] = molecular target: Cat L (UniProt P07711); experiment: Cathepsin enzyme inhibition assay (fluorogenic peptide substrate Z-Val-Val-Arg-AMC), Cathepsin L; format: biochemical, human and mouse; details: enzyme 1 nM, substrate 20 μM, pH 6.5; read-out: CatL IC50
Summary of the method: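 Cathepsin L at 1 nM was mixed with compound, then started with 20 μM Z-Val-Val-Arg-AMC in pH 6.5 potassium phosphate with EDTA, Triton X-100 and 5 mM DTT. AMC fluorescence (ex 360/em 465 nm) was followed over 20 min. IC50 is given in μM.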

SMILES	IC50 [1] [nM]	IC50 [2] [nM]
Cc1cc(N2C[C@H](S(=O)(=O)c3ccc(OCC(F)(F)F)cc3Cl)C[C@H]2C(=O)NC2(C#N)CC2)n(C2CCC2)n1 [Example 480, (2S,4R)-4-[2-Chloro-4-(2,2,2-trifluoro-ethoxy)-benzenesulfonyl]-1-(2-cyclobutyl-5-methyl-2H-pyrazol-3-yl)-pyrrolidine-2-carboxylic acid (1-cyano-cyclopropyl)-amide]	1.05	5360
N#CC1CCN2C[C@H](S(=O)(=O)c3ccc(F)cc3Cl)C[C@@]12C(=O)NC1(C#N)CC1 (stereo partly drawn) [Example 383, (6R,7aS)-6-(2-Chloro-4-fluoro-benzenesulfonyl)-1-cyano-tetrahydro-pyrrolizine-7a-carboxylic Acid (1-cyano-cyclopropyl)-amide]	14	20000
N#CC1(NC(=O)[C@@H]2C[C@@H](S(=O)(=O)c3ccc(OCC(F)(F)F)cc3Cl)CN2C(=O)C2(c3cccc(Br)c3)CC2)CC1 [Example 332, (2S,4R)-1-[1-(3-Bromo-phenyl)-cyclopropanecarbonyl]-4-[2-chloro-4-(2,2,2-trifluoro-ethoxy)-benzenesulfonyl]-pyrrolidine-2-carboxylic acid (1-cyano-cyclopropyl)-amide]	0.195	580
Cc1cc(-n2nc(C)cc2N2C[C@H](S(=O)(=O)c3ccccc3C(F)(F)F)C[C@H]2C(=O)NC2(C#N)CC2)cc(C)n1 [Example 351]	19.5	≥ 25000
N#CC1(NC(=O)[C@@H]2C[C@@H](S(=O)(=O)c3ccccc3Cl)CN2C(=O)Cc2ccc(Cl)c(F)c2)CC1 [Example 444, (2S,4R)-4-(2-Chloro-benzenesulfonyl)-1-[2-(4-chloro-3-fluoro-phenyl)-acetyl]-pyrrolidine-2-carboxylic acid (1-cyano-cyclopropyl)-amide]	0.895	260
Cc1cc(N2C[C@H](S(=O)(=O)c3ccc(N4CCN(C(C)(C)C)CC4)cc3Cl)C[C@H]2C(=O)NC2(C#N)CC2)n(CCc2ccccc2)n1 [Example 485, (2S,4R)-4-[4-(4-tert-Butyl-piperazin-1-yl)-2-chloro-benzenesulfonyl]-1-(5-methyl-2-phenethyl-2H-pyrazol-3-yl)-pyrrolidine-2-carboxylic acid (1-cyano-cyclopropyl)-amide]	0.9	275
N#CC1(NC(=O)[C@@H]2C[C@@H](S(=O)(=O)c3ccccc3Cl)CN2S(=O)(=O)c2ccc3ccccc3c2)CC1 [Example 313, (2S,4R)-4-(2-Chloro-benzenesulfonyl)-1-(naphthalene-2-sulfonyl)-pyrrolidine-2-carboxylic Acid (1-cyano-cyclopropyl)-amide]	0.46	1390
Cc1ccc(S(=O)(=O)[C@@H]2C[C@@H](C(=O)NC3(C#N)CC3)N(C(=O)OC(C)(C)C)C2)c(C)c1 [Example 39, (2S,4R)-2-(1-Cyano-cyclopropylcarbamoyl)-4-(2,4-dimethyl-benzenesulfonyl)-pyrrolidine-1-carboxylic acid tert-butyl ester]	2.2	50200
N#CC1(NC(=O)[C@@H]2C[C@@H](S(=O)(=O)c3ccc(OCC(F)(F)F)cc3Cl)CN2C(=O)C2(c3ccccc3)CCOCC2)CC1 [Example 287, (2S,4R)-4-[2-Chloro-4-(2,2,2-trifluoro-ethoxy)-benzenesulfonyl]-1-(4-phenyl-tetrahydro-pyran-4-carbonyl)-pyrrolidine-2-carboxylic acid (1-cyano-cyclopropyl)-amide]	0.175	3170
Cc1cc(N2C[C@H](S(=O)(=O)c3ccccc3Cl)C[C@H]2C(=O)NC2(C#N)CC2)n(Cc2cncn2C)n1 [Example 476, (2S,4R)-4-(2-Chloro-benzenesulfonyl)-1-[5-methyl-2-(3-methyl-3H-imidazol-4-ylmethyl)-2H-pyrazol-3-yl]-pyrrolidine-2-carboxylic acid (1-cyano-cyclopropyl)-amide]	6.6	4760
N#CC1(NC(=O)[C@@H]2C[C@@H](S(=O)(=O)CC3CC3)CN2C(=O)C2(c3ccc(Cl)cc3)CC2)CC1 [Example 424, (2S,4R)-1-[1-(4-Chloro-phenyl)-cyclopropanecarbonyl]-4-cyclopropylmethanesulfonyl-pyrrolidine-2-carboxylic acid (1-cyano-cyclopropyl)-amide]	410	≥ 25000
N#CC1(NC(=O)[C@@H]2C[C@@H](S(=O)(=O)c3ccccc3Cl)CN2c2nc(Cl)ns2)CC1 [Example 486, (2S,4R)-4-(2-Chloro-benzenesulfonyl)-1-(3-chloro-[1,2,4]thiadiazol-5-yl)-pyrrolidine-2-carboxylic acid (1-cyano-cyclopropyl)-amide]	0.85	22000
Cc1cc(N2C[C@H](S(=O)(=O)c3ccc(-c4ccnn4C)cc3C(F)(F)F)C[C@H]2C(=O)NC2(C#N)CC2)n(C2CCC2)n1 [Example 420, (2S,4R)—N-(1-cyanocyclopropyl)-1-(1-cyclobutyl-3-methyl-1H-pyrazol-5-yl)-4-(4-(1-methyl-1H-pyrazol-5-yl)-2-(trifluoromethyl)phenylsulfonyl)pyrrolidine-2-carboxamide]	0.395	14000
CC(C)(C)OC(=O)N1C[C@H](S(=O)(=O)c2ccc(N3CCC(C(F)(F)F)CC3)cc2Cl)C[C@H]1C(=O)NC1(C#N)CC1 [Example 153, (2S,4R)-4-[2-Chloro-4-(4-trifluoromethyl-piperidin-1-yl)-benzenesulfonyl]-2-(1-cyano-cyclopropylcarbamoyl)-pyrrolidine-1-carboxylic acid tert.-butyl ester]	2.5	44000
N#CC1(NC(=O)[C@@H]2C[C@@H](S(=O)(=O)c3ccccc3Cl)CN2C2CCC2)CC1 [Example 84, (2S,4R)-4-(2-Chloro-benzenesulfonyl)-1-cyclobutyl-pyrrolidine-2-carboxylic acid (1-cyano-cyclopropyl)-amide]	55	≥ 25000

Now from value to compound:

IC50 [1] [nM]	IC50 [2] [nM]	SMILES
0.49	15900	CC1(C(=O)N2C[C@H](S(=O)(=O)c3ccc(OCC(F)(F)F)cc3Cl)C[C@H]2C(=O)NC2(C#N)CC2)CC1 [Example 175, (2S,4R)-4-[2-Chloro-4-(2,2,2-trifluoro-ethoxy)-benzenesulfonyl]-1-(1-methyl-cyclopropanecarbonyl)-pyrrolidine-2-carboxylic acid (1-cyano-cyclopropyl)-amide]
0.2	72000	N#CC1(NC(=O)[C@@H]2C[C@@H](S(=O)(=O)c3ccccc3C(F)(F)F)CN2C(=O)C2(C(F)(F)F)CC2)CC1 [Example 205, (2S,4R)-4-(2-Trifluoromethyl-benzenesulfonyl)-1-(1-trifluoromethyl-cyclopropanecarbonyl)-pyrrolidine-2-carboxylic acid (1-cyano-cyclopropyl)-amide]
2.6	31500	CCOC(=O)N1C[C@H](S(=O)(=O)c2ccccc2Cl)C[C@H]1C(=O)NC1(C#N)CC1 [Example 96, (2S,4R)-4-(2-Chloro-benzenesulfonyl)-2-(1-cyano-cyclopropylcarbamoyl)-pyrrolidine-1-carboxylic acid ethyl ester]
7470	≥ 25000	CS(=O)(=O)[C@@H]1C[C@@H](C(=O)NC2(C#N)CC2)N(C(=O)C2(C(F)(F)F)CC2)C1 [Example 440, (2S,4R)-4-Methanesulfonyl-1-(1-trifluoromethyl-cyclopropanecarbonyl)-pyrrolidine-2-carboxylic acid (1-cyano-cyclopropyl)-amide]
23.5	≥ 25000	N#CC1(NC(=O)[C@H]2C[C@@H](S(=O)(=O)c3ccc(N4CCOCC4)cc3Cl)CN2C(=O)C2(C(F)(F)F)CC2)CC1 [Example 162, (2R,4R)-4-(2-Chloro-4-morpholin-4-yl-benzenesulfonyl)-1-(1-trifluoromethyl-cyclopropanecarbonyl)-pyrrolidine-2-carboxylic acid (1-cyano-cyclopropyl)-amide]
0.2	≥ 25000	N#CC1(NC(=O)[C@@H]2C[C@@H](S(=O)(=O)c3ccccc3C(F)(F)F)CN2C(=O)C2CCCCC2)CC1 [Example 104, (2S,4R)-1-Cyclohexanecarbonyl-4-(2-trifluoromethyl-benzenesulfonyl)-pyrrolidine-2-carboxylic acid (1-cyano-cyclopropyl)-amide]
43.5	≥ 25000	CC(C)(C)OC(=O)N1C[C@H](S(=O)(=O)c2ccccc2OC(F)(F)F)C[C@H]1C(=O)NC1(C#N)CC1 [Example 2, (2S,4R)-2-(1-Cyano-cyclopropylcarbamoyl)-4-(2-trifluoromethoxy-benzenesulfonyl)-pyrrolidine-1-carboxylic acid tert-butyl ester]
3.6	≥ 25000	N#CC1(NC(=O)[C@@H]2C[C@@H](S(=O)(=O)c3ccccc3C(F)(F)F)CN2C(=O)C(F)(F)F)CC1 [Example 102, (2S,4R)-1-(2,2,2-Trifluoro-acetyl)-4-(2-trifluoromethyl-benzenesulfonyl)-pyrrolidine-2-carboxylic acid (1-cyano-cyclopropyl)-amide]
0.26	45700	N#CC1(NC(=O)[C@@H]2C[C@@H](S(=O)(=O)c3ccc(C4CC4)cc3C(F)(F)F)CN2C(=O)C2(C(F)(F)F)CC2)CC1 [Example 256, (2S,4R)-4-(4-Cyclopropyl-2-trifluoromethyl-benzenesulfonyl)-1-(1-trifluoromethyl-cyclopropanecarbonyl)-pyrrolidine-2-carboxylic acid (1-cyano-cyclopropyl)-amide]
